Experimental data taken from the Kinase Knowledgebase extract (Sharma et al. 2016).

Biological target: CDK2 (human) (UniProt P24941)
Experiment: Enzyme Assay

SMILES | IC50 [µM]
COC(=O)[C@H](Cc1ccc(O)cc1)NC(=O)c1cc(C(=O)O)c2cc(C=CC(C)(C)C)ccc2n1 | ≤ 1
CCCC(Cc1ccc(O)cc1)NC(=O)c1cc(C(=O)O)c2cc(-c3cccc(C(F)(F)F)c3)ccc2n1 (stereo not given) | ≤ 1
COC(=O)[C@H](Cc1ccc(O)cc1)NC(=O)c1cc(NS(C)(=O)=O)c2cc(-c3cccc(C(F)(F)F)c3)ccc2n1 | ≤ 1
COC(=O)[C@H](Cc1ccc(O)cc1)NC(=O)c1cc(C(=O)O)c2cc(-c3ccc(F)c(Cl)c3)ccc2n1 | ≤ 1
COC[C@H](Cc1ccc(O)cc1)NC(=O)c1cc(C(=O)O)c2cc(OCc3ccc(C(F)(F)F)cc3)ccc2n1 | ≤ 1
COC[C@H](Cc1ccc(O)cc1)NC(=O)c1cc(-c2nnn[nH]2)c2cc(-c3cccc(C(F)(F)F)c3)ccc2n1 | ≤ 1
COC(=O)[C@H](Cc1ccc(O)cc1)NC(=O)c1cc(C(=O)O)c2cc(C=Cc3ccc(Cl)cc3)ccc2n1 | ≤ 1
COC(=O)[C@H](Cc1ccc(O)cc1)NC(=O)c1cc(C(=O)O)c2cc(-c3ccc(C)c([N+](=O)[O-])c3)ccc2n1 | ≤ 1
COC(=O)[C@H](Cc1ccc(O)cc1)NC(=O)c1cc(C(=O)O)c2cc(-c3ccc(Cl)c(Cl)c3)ccc2n1 | ≤ 1
COC[C@H](Cc1ccc(O)cc1)NC(=O)c1cc(C(=O)O)c2cc(-c3cccc(C(F)(F)F)c3)ccc2n1 | ≤ 1
COC(=O)[C@H](Cc1ccc(O)cc1)NC(=O)c1cc(C(=O)O)c2cc(-c3cccc([N+](=O)[O-])c3)ccc2n1 | ≤ 1
COC(=O)[C@H](Cc1ccc(O)cc1)NC(=O)c1cc(C(=O)O)c2cc(-c3cc4ccccc4s3)ccc2n1 | ≤ 1
O=C(N[C@@H](Cc1ccc(O)cc1)c1ncc[nH]1)c1cc(C(=O)O)c2cc(-c3cccc(C(F)(F)F)c3)ccc2n1 | ≤ 1
COC[C@H](Cc1ccc(O)cc1)NC(=O)c1cc(S(=O)(=O)O)c2cc(-c3cccc(C(F)(F)F)c3)ccc2n1 | ≤ 1
Cc1cnc([C@H](Cc2ccc(O)cc2)NCc2cc(C(=O)O)c3cc(-c4cccc(C(F)(F)F)c4)ccc3n2)o1 | ≤ 1
CCCCCCCc1ccc2nc(C(=O)N[C@H](COC)Cc3ccc(O)cc3)cc(C(=O)O)c2c1 | ≤ 1
COC[C@H](Cc1ccc(O)cc1)NC(=O)c1cc(C(=O)O)c2cc(C=Cc3ccc(Cl)cc3)ccc2n1 | ≤ 1
COC(=O)[C@H](Cc1ccc(O)cc1)NC(=O)c1cc(C(=O)O)c2cc(-c3cc(C)cc(C)c3)ccc2n1 | ≤ 1
COC(=O)[C@H](Cc1ccc(O)cc1)NC(=O)c1cc(C(=O)O)c2cc(CCc3ccc(F)cc3)ccc2n1 | ≤ 1
COC(=O)[C@H](Cc1ccc(O)cc1)NC(=O)c1cc(C(=O)O)c2cc(CCc3ccc(Cl)cc3)ccc2n1 | ≤ 1
COC(=O)[C@H](Cc1ccc(O)cc1)NC(=O)c1cc(C(=O)O)c2cc(C=Cc3ccc(F)cc3)ccc2n1 | ≤ 1
CCCCCCc1ccc2nc(C(=O)N[C@@H](Cc3ccc(O)cc3)C(=O)OC)cc(C(=O)O)c2c1 | ≤ 1
COC(=O)[C@H](Cc1ccc(O)cc1)NC(=O)c1cc(C(=O)O)c2cc(-c3ccc(C(C)C)cc3)ccc2n1 | ≤ 1
CN(C)C(=O)[C@H](Cc1ccc(O)cc1)NC(=O)c1cc(C(=O)O)c2cc(C=Cc3ccc(Cl)cc3)ccc2n1 | ≤ 1
CCCCCC=Cc1ccc2nc(C(=O)N[C@H](COC)Cc3ccc(O)cc3)cc(C(=O)O)c2c1 | ≤ 1
COC(=O)[C@H](Cc1ccc(O)cc1)NC(=O)c1cc(C(=O)O)c2cc(-c3ccc(OC(F)(F)F)cc3)ccc2n1 | ≤ 1
COC(=O)[C@H](Cc1ccc(O)cc1)NC(=O)c1cc(C(=O)O)c2cc(-c3ccc(Cl)cc3)ccc2n1 | ≤ 1
O=C(NC(Cc1ccc(O)cc1)C1CCCCC1)c1cc(C(=O)O)c2cc(-c3cccc(C(F)(F)F)c3)ccc2n1 (stereo not given) | ≤ 1

Second part, the molecule after the results:

IC50 [µM] | SMILES
≤ 1 | O=C(N[C@@H](Cc1ccc(O)cc1)C(=O)NC1CC1)c1cc(C(=O)O)c2cc(C=Cc3ccc(Cl)cc3)ccc2n1
≤ 1 | COC(=O)[C@H](Cc1ccc(O)cc1)NC(=O)c1cc(C(=O)O)c2cc(-c3cc(Cl)cc(Cl)c3)ccc2n1
≤ 1 | COC(=O)[C@H](Cc1ccc(O)cc1)NC(=O)c1cc(C(=O)O)c2cc(-c3ccccc3)ccc2n1
≤ 1 | COC(=O)[C@H](Cc1ccc(O)cc1)NC(=O)c1cc(C(=O)O)c2cc(-c3cccc(C#N)c3)ccc2n1
≤ 1 | COC[C@H](Cc1ccc(O)cc1)NC(=O)c1cc(C(=O)O)c2cc(-c3cccc(Cn4ccccc4=O)c3)ccc2n1
≤ 1 | COC(=O)[C@H](Cc1ccc(O)cc1)NC(=O)c1cc(C(=O)O)c2cc(-c3ccc(Oc4ccccc4)cc3)ccc2n1
≤ 1 | COC(=O)[C@H](Cc1ccc(O)cc1)NC(=O)c1cc(C(=O)O)c2cc(-c3cc4ccccc4o3)ccc2n1
≤ 1 | COC(=O)[C@H](Cc1ccc(O)cc1)NC(=O)c1cc(C(=O)O)c2cc(CCC(C)(C)C)ccc2n1
≤ 1 | COC[C@H](Cc1ccc(O)cc1)NC(=O)c2cc(C(=O)O)c3cc(ccc3n2)c4cccc(CN5=CC(=CC=C5)O)c4
≤ 1 | CON=C[C@H](Cc1ccc(O)cc1)NC(=O)c1cc(C(=O)O)c2cc(-c3cccc(C(F)(F)F)c3)ccc2n1
≤ 1 | COC(=O)[C@H](Cc1ccc(O)cc1)NC(=O)c1cc(C(=O)O)c2cc(CCc3ccc(C(F)(F)F)cc3)ccc2n1
≤ 1 | COC(=O)[C@H](Cc1ccc(O)cc1)NC(=O)c1cc(C(=O)O)c2cc(-c3cccc(C)c3)ccc2n1
≤ 1 | COC(=O)[C@H](Cc1ccc(O)cc1)NC(=O)c1cc(C(=O)O)c2cc(-c3cccc(-c4ccccc4)c3)ccc2n1
≤ 1 | COC(=O)[C@H](Cc1ccc(O)cc1)NC(=O)c1cc(C(=O)O)c2cc(-c3ccc(C)s3)ccc2n1
≤ 1 | COC[C@H](Cc1ccc(O)cc1)NC(=O)c1cc(NS(=O)(=O)C(C)(C)C)c2cc(-c3cccc(COc4ccccn4)c3)ccc2n1
≤ 1 | COC(=O)[C@H](Cc1ccc(O)cc1)NC(=O)c1cc(C(=O)O)c2cc(-c3ccc(F)c(C)c3)ccc2n1
≤ 1 | CNC(=O)[C@H](Cc1ccc(O)cc1)NC(=O)c1cc(C(=O)O)c2cc(C=Cc3ccc(Cl)cc3)ccc2n1
≤ 1 | COC(=O)[C@H](Cc1ccc(O)cc1)NC(=O)c1cc(C(=O)O)c2cc(-c3cccc(C(C)C)c3)ccc2n1
≤ 1 | COC(=O)[C@H](Cc1ccc(O)cc1)NC(=O)c1cc(C(=O)O)c2cc(-c3ccc(OC)cc3)ccc2n1
≤ 1 | COC(=O)[C@H](Cc1ccc(O)cc1)NC(=O)c1cc(C(=O)O)c2cc(-c3cccs3)ccc2n1
≤ 1 | CCCCCC#Cc1ccc2nc(C(=O)N[C@H](COC)Cc3ccc(O)cc3)cc(C(=O)O)c2c1
≤ 1 | COC(=O)[C@H](Cc1ccc(O)cc1)NC(=O)c1cc(C(=O)O)c2cc(CCc3ccccc3)ccc2n1
